According to patent US20060282906A1, “Non-transgenic rodent model of Alzheimer's disease” (priority 2005, published 2006):
Marks after values point to notes of the source that are not given here. Where no end group is shown, it is not given here.

Experiments:
rats = experiment: Barnes circular platform test; format: in vivo, rat; settings: 50 nmol intracerebroventricular; memory test trial (day 8) vs last trial of training (day −1); P<0.01
Experimental: All rats were anesthetized using 40 mg/kg of pentobarbital (Somnotol; MTC Pharmaceuticals, Cambridge, Ontario) intraperitoneally. Body temperature was maintained at 37° C. Aβ(25-35) (50 nmol in 10 μL of saline) was injected bilaterally into the lateral ventricles. Aβ(25-35) was prepared according to established methods (Sigurdsson, et al. (1997) supra). […] (1997) supra). […] After wound suture, all rats received […] of buprenorphine intramuscularly and were allowed to recover from surgery for 7 days. Learning and memory deficits were assessed using the Barnes circular platform. There are twenty holes evenly located along the border of circular platform with a hidden escape box beneath one of the holes. The circular platform is equipped with colored cues on the surrounding wall. A bright light combined with wind from a fan hung on the ceiling above the platform provides the incentive for the rats to find the hidden box and enter the escape hole. During each trial, the rats were initially placed in the center of the platform under an inverted box, then the box was lifted up and the rat is allowed to find the hole for up to 4 minutes. The latency (time to enter the escape hole) was recorded during the trial. There was a training period (trials 1-14) performed at day −7 to day −1 before surgery (day 0). PDTC or vehicle treatment was given 30 minutes before Aβ(25-35) injections and from days 1 to 7 post-surgery. Spatial memory was then tested on day 8 (trial 15) with the escape hole placed in the same location. Spatial learning was examined by re-testing (re-acquisition) from days 9 to 15 (trials 16-29) with the escape box relocated at […] from the original location. Digital photographs were taken using a light microscope (Leitz Diaplan). […] Also, relative optical density measurements and numbers of stained cells or accumulations were measured in entire brain areas for quantitative analysis and statistically analyzed with ANOVA and Tukey post hoc test with a significance level of P<0.05. […] The staircase data are expressed as the mean±SEM. […] Data are expressed as mean±SEM. […]

Male Wistar rats [1] = experiment: Quantitative immunohistochemistry: relative optical density and numbers of stained cells or accumulations; format: in vivo, rat; settings: for APP Accumulation / GFAP Intensity / OX6 Intensity: vehicle (not in brackets), mean ± SEM, n = 4
Experimental: (§1) Male Wistar rats (250 to 300 grams; Charles River, Montreal, Quebec) were divided into 4 groups: intracerebroventricular injections of Aβ(25-35) (BACHEM, Torrance, Calif.); endothelin injections into the right striatum; both Aβ(25-35) and striatal endothelin injections; and sham procedures. The Aβ(25-35) fragment was used to reduce the possibility of rapid coagulation and to allow diffusion of the peptide into the brain.
(§2) All rats were anesthetized using 40 mg/kg of pentobarbital (Somnotol; MTC Pharmaceuticals, Cambridge, Ontario) intraperitoneally. Body temperature was maintained at 37° C. Aβ(25-35) (50 nmol in 10 μL of saline) was injected bilaterally into the lateral ventricles. Aβ(25-35) was prepared according to established methods (Sigurdsson, et al. (1997) supra). Aβ(25-35) (50 nmol in 10 μL of saline at a rate of 1 μL/minute) was injected bilaterally into the lateral ventricles via a stainless-steel cannula (23-gauge; anterior/posterior −0.8, medial/lateral ±1.4, and dorsal/ventral −4.0 below dura). Two endothelin injections (6 pmol in 3 μL of saline), 1 mm apart, were made into the right striatum (Sigurdsson, et al. (1997) supra). Sham procedures involved all the surgical steps without injections of Aβ(25-35) or endothelin. After wound suture, all rats received 40 mg/kg of buprenorphine intramuscularly and were allowed to recover from surgery for 7 days.
(§3) Twenty-one days after surgery, all animals were euthanized via pentobarbital overdose and perfused transaortically first with saline followed by 4% formaldehyde (pH 7.4). The brains were removed and cryoprotected in 30% sucrose for 36 hours at 4° C. Coronal sections (30 pm) were cut using a cryostat.
(§4) Free-floating sections from rat brains (n=5 for each group) were treated with 0.03% hydrogen peroxide and blocked with 3 mL of horse or rabbit serum (VECTASTAIN® Elite, Vector Laboratories, Burlingame, Calif.). The following primary antibodies were diluted in filtered phosphate-buffered saline: APPa4 mouse monoclonal (Chemicon International Inc, Temecula, Calif.; 1:1000), GFAP mouse monoclonal (Sigma-Aldrich, St Louis, Mo.; 1:1000), OX-6 mouse monoclonal (Serotec, Inc., Raleigh, N.C.; 1:1000), Tau-2 mouse monoclonal (Sigma-Aldrich, St Louis, Mo.; 1:10000), NFκB(p65) goat polyclonal (Santa Cruz Biotechnologies, Santa Cruz, Calif.; 1:1000), IL-1β goat polyclonal (Santa Cruz Biotechnologies, Santa Cruz, Calif.; 1:1000), and TNF-α-M18 goat polyclonal (Santa Cruz Biotechnologies, Santa Cruz, Calif.; 1:1000). APP-, Tau-2-, GFAP-, and OX-6-stained sections were incubated with 3 mL of horse biotinylated anti-mouse secondary antibody and horse serum. NFκB(p65), IL-1β, and TNF-α-stained sections were incubated with 3 mL of biotinylated rabbit anti-goat secondary antibody and rabbit serum. Sections were then incubated in 3 mL of avidin-biotin complex followed by 0.05% diaminobenzidine. Sections were washed, air-dried, cleared in xylene, and cover-slipped. Brains to be compared were processed at the same time using the same solutions to reduce variability in immunostaining caused by separate processing.
(§5) Digital photographs were taken using a light microscope (Leitz Diaplan). An investigator was blinded to the identification of the rat sections while analysis was being performed. All immunohistochemical data that were compared was processed at the same time to reduce any variation caused by differences of intensity. A grading scale was based on both observable size and intensity of staining (n=5 for each group). Also, relative optical density measurements and numbers of stained cells or accumulations were measured in entire brain areas for quantitative analysis and statistically analyzed with ANOVA and Tukey post hoc test with a significance level of P<0.05.

Male Wistar rats [2] = experiment: Immunohistochemistry of rat brain sections, grading scale of staining size and intensity; format: in vivo; parameters: key to NKκB(p65) immunostaining signal / COX-2 immunostaining signal / GFAP immunostaining signal / OX-6 immunostaining signal / APP immunostaining signal / Tau-2 immunostaining signal / TNFα immunostaining signal / Cas-3 immunostaining signal: n.s.: no positive staining; +: moderate immunostaining signal; ++: strong immunostaining signal; +++: strongest immunostaining signal
Experimental: as §1, §2, §3, §4, §5

GSNKGAIIGLM [Aβ, β-amyloid fragment (25-35), 50 nmol injected bilaterally into the lateral ventricles of rats]
36.8 ± 7.8^y: APP Accumulation (Male Wistar rats [1]; Left Cortex)
increased latency: latency (time to enter the escape hole) (rats)
162.9±8.7: Average intensity measurements for GFAP (Male Wistar rats [1]; Hippocampus)
37.8 ± 5.4^y: APP Accumulation (Male Wistar rats [1]; Right Cortex)
13.4±5.1: average numbers of OX-6-stained microglia (Male Wistar rats [1]; CA1 of the hippocampus)
119.3 ± 9.1: OX6 Intensity (Male Wistar rats [1]; Right Hippocampus)
+: APP immunostaining signal (Male Wistar rats [2]; Corpus Callosum) | COX-2 immunostaining signal (Male Wistar rats [2]; Corpus Callosum) | GFAP immunostaining signal (Male Wistar rats [2]; Corpus Callosum) | NKκB(p65) immunostaining signal (Male Wistar rats [2]; Corpus Callosum) | OX-6 immunostaining signal (Male Wistar rats [2]; Corpus Callosum) | TNFα immunostaining signal (Male Wistar rats [2]; Corpus Callosum) | Tau-2 immunostaining signal (Male Wistar rats [2]; Corpus Callosum) | APP immunostaining signal (Male Wistar rats [2]; Cortex) | COX-2 immunostaining signal (Male Wistar rats [2]; Cortex) | GFAP immunostaining signal (Male Wistar rats [2]; Cortex) | NKκB(p65) immunostaining signal (Male Wistar rats [2]; Cortex) | OX-6 immunostaining signal (Male Wistar rats [2]; Cortex) | TNFα immunostaining signal (Male Wistar rats [2]; Cortex) | Tau-2 immunostaining signal (Male Wistar rats [2]; Cortex) | APP immunostaining signal (Male Wistar rats [2]; Hippocampus) | COX-2 immunostaining signal (Male Wistar rats [2]; Hippocampus) | GFAP immunostaining signal (Male Wistar rats [2]; Hippocampus) | NKκB(p65) immunostaining signal (Male Wistar rats [2]; Hippocampus) | OX-6 immunostaining signal (Male Wistar rats [2]; Hippocampus) | Tau-2 immunostaining signal (Male Wistar rats [2]; Hippocampus) | APP immunostaining signal (Male Wistar rats [2]; Hypothalamus) | NKκB(p65) immunostaining signal (Male Wistar rats [2]; Hypothalamus) | TNFα immunostaining signal (Male Wistar rats [2]; Hypothalamus) | GFAP immunostaining signal (Male Wistar rats [2]; Striatum (right)) | OX-6 immunostaining signal (Male Wistar rats [2]; Thalamus (right)) | TNFα immunostaining signal (Male Wistar rats [2]; Thalamus (right))
n.s.: APP immunostaining signal (Male Wistar rats [2]; Striatum (right)) | COX-2 immunostaining signal (Male Wistar rats [2]; Striatum (right)) | Cas-3 immunostaining signal (Male Wistar rats [2]; Striatum (right)) | NKκB(p65) immunostaining signal (Male Wistar rats [2]; Striatum (right)) | OX-6 immunostaining signal (Male Wistar rats [2]; Striatum (right)) | TNFα immunostaining signal (Male Wistar rats [2]; Striatum (right))
116.2 ± 6.7: OX6 Intensity (Male Wistar rats [1]; Left Hippocampus)
166.5 ± 4.2: GFAP Intensity (Male Wistar rats [1]; Right Hippocampus)
167.5 ± 5.2: GFAP Intensity (Male Wistar rats [1]; Left Hippocampus)
